The record followed here is patent publication US20260193668A1, “NOVEL PEPTIDES AND USE THEREOF FOR MODULATING PROTEIN ACCUMULATION” (UNIVERSITE TOULOUSE III - PAUL SABATIER, priority 2022, published 2026).

One assay concerns A. thaliana plants. The assay is described as follows: Flowering day of A. thaliana plants. The class given is in vivo, Arabidopsis thaliana. To be noted: sprayed with 10 μM peptide three times a week until flowering. The procedure:
(§1) (a, b) Length of primary roots of A. thaliana seedlings treated with a Scrambled cPEPdcl1 or with a cPEPdcl1. (c) Relative chlorophyll content of A. thaliana seedlings treated with the corresponding peptide. (d) Resumption of growth of A. thaliana seedlings after heat shock at 45° C. for 45 min and treated with the corresponding peptide. (e) Relative lesion area of A. thaliana seedlings infected with B. cinerea and treated with the indicated peptide. (f) Measurement of the flowering day of A. thaliana plants treated with the indicated peptides. (g, h) Flowering day of A. thaliana plants treated with an irrelevant peptide or a mixture of cPEPs (targeting EIN2, BR11, BAK1 and WUS). (i, j) Leaf area of A. thaliana plants treated with an irrelevant peptide or a mixture of cPEPs (targeting EIN2, BR11, BAK1 and WUS).
N. benthamiana plants were treated by spraying the leaves 24 h before harvesting. For Luc assays, 100 μL of MS/2 liquid medium containing the peptides was added to each well. 5 μL of luciferin was added and luciferase activity was read 30 min later using a spectrophotometer. All other assays were performed by spraying or watering the plants. To quantify the protein level induced by cPEPs in Arabidopsis, rosettes were sprayed daily with 100 μM of peptide or its control for 5 days. Leaves were harvested 6 h after the last treatment for western blot analysis. For the flowering assay and chlorophyll content, 10-day-old Arabidopsis plants were sprayed with 500 μL of 10 μM peptide three times a week until flowering. Chlorophyll content was measured using the SPAD chlorophylometer (Konica Minolta). Leaf area was measured using ImageJ software. Barbarea vulgaris and A. hypochondriacus seedlings were treated immediately after sowing and 3 times a week with 500 μL of a 20 μM mixture of each peptide. For western blotting, a heat shock was performed by placing 20-day-old plants grown in 24-well plates on MS/2 for 90 min at 37° C. before harvesting. The plants were treated with 100 μM of peptide for 24 h. For the heat shock resistance test on A. thaliana, 3-day-old seedlings were treated for three days with 100 μM of peptide before placing the plants at 45° C. for 45 min. The plants were placed in a growth chamber to recover and treated 24 h after heat shock with 100 μM of peptide. For soybean heat shock, one-week-old seedlings were treated for 48 h, 24 h and 30 min before being placed at 45° C. for 24 h. For soybean growth, seedlings were treated 3 times a week for a fortnight with 500 μL of 100 μM peptide.

Another assay has as its system luciferase mRNA. The assay is described as follows: RNA-IP followed by PCR on plants treated with HA-tagged peptides. To be noted: anti-HA magnetic beads. Format: binding, Arabidopsis thaliana. From the text:
Analysis of luciferase expression in A. thaliana constitutively expressing the LUC transgene. (a) Agarose gel after PCR amplification of RNA obtained by immunoprecipitation using anti-HA magnetic beads, followed by RT-PCR, on plants treated with the indicated peptide (SC-HA: Scrambled cPEPluc-HA; Luc-HA: cPEPluc-HA). (b) Relative expression of the luciferase transgene in plants treated with the indicated peptide, quantified by RT-qPCR. (c-e) Relative quantification of LUC in plants treated with the indicated peptide. (f, g) Ratio between induction and quantification of LUC in plants treated with cPEPluc compared to plants treated with Scrambled cPEPluc, using different peptide concentrations (f) or taken at different time points (g). (h) Transcriptomic analysis of plants treated with cPEPluc-HA compared to plants treated with Scrambled cPEPluc-HA. (i) Proteomic analysis of plants treated with cPEPluc-HA compared to plants treated with Scrambled cPEPluc-HA. Protein expression was analysed by Western blots and quantified using ImageJ.
RNA co-immunoprecipitation was adapted from Merret et al. (Plant Physiol. 174:1216-1225. 2017). 400 mg of tissue powder was incubated in 3 mL of lysis buffer (200 mM Tris, pH 9.0, 110 mM potassium acetate, 0.5% Triton X-100, 0.1% Tween© 20, 5 mM DTT, 1.5% protease inhibitor and 80 units·ml-1 RNasin). […]

The subject of another assay is Botrytis cinerea. The assay is described as follows: Infection assay of A. thaliana leaves inoculated with B. cinerea. The class given is in vivo. The following applies: 100 μM peptide, compared with plants treated with an irrelevant peptide. On the procedure: as §1
(a) Quantification of CPK3 expression, using CPK3 antibodies, in peptide-treated A. thaliana plants. (b-c) Infection assay of peptide-treated A. thaliana leaves inoculated with B. cinerea spores.
Wild-type or mutant A. thaliana leaves were sprayed daily with 100 μM of peptide or 100 μM of the corresponding scramble version for 3 days. Six hours after the last treatment, five mature leaves per plant were inoculated with a 5 μL droplet of 2.5×10^5 spores/mL of Botrytis cinerea strain B05.10 diluted in 100 μM of peptide or its corresponding scramble version. After inoculation, plants were maintained at 100% relative humidity. Then, a 2 μL droplet of 100 μM of peptide or 100 μM of the corresponding scramble version was deposited daily on B. cinerea-infected leaves for 3 days (until symptoms appeared). Leaves were removed from the plants to determine lesion areas using the ImageJ programme. For tomato, the protocol was the same except that inoculation was carried out with 5,000 B. cinerea spores, without peptides. Peptides were added 1 h after inoculation (1 μL of 500 μM) and each day for two days with 5 μL of 100 μM peptide. For infection of M. truncatula with A. euteiches, plants were grown on agar medium and treated with 10 μL of 100 μM peptide, 24 h before, 24 h and 72 h after infection with 10 μL (1000 spores) of A. euteiches spores. Plants were harvested 7 days after inoculation for RNA extraction.

In another assay the test system is A. thaliana seedlings. In words: Relative chlorophyll content of A. thaliana. Format: in vivo, Arabidopsis thaliana. To be noted: sprayed with 10 μM peptide three times a week. The procedure: as §1
N. benthamiana plants were treated by spraying the leaves 24 h before harvesting. For Luc assays, 100 μL of MS/2 liquid medium containing the peptides was added to each well. 5 μL of luciferin was added and luciferase activity was read 30 min later using a spectrophotometer. […] To quantify the protein level induced by cPEPs in Arabidopsis, rosettes were sprayed daily with 100 μM of peptide or its control for 5 days. […] Chlorophyll content was measured using the SPAD chlorophylometer (Konica Minolta). Leaf area was measured using ImageJ software. […]

The next assay deals with Aphanomyces euteiches. The assay is described as follows: M. truncatula seedlings infected with A. euteiches. Format: in vivo. The following applies: 100 μM peptide. From the text:
(§2) (a) FRET-FLIM analysis of the interaction between cPEPnsp1-FAM and NSP1 (left) or NSP1ΔcPEP (right) in planta. (b) qRT-PCR quantification of NSP1 expression in M. truncatula roots treated with cPEPnsp1 or Scrambled cPEPnsp1. (c) GUS quantification of peptide-treated M. truncatula roots carrying the Pro NSP1-NSP1-GUS fusion. (d, e) Quantification of NSP1 expression in N. benthamiana leaves after infiltration of different constructs: ‘wild type’ i.e. version of NSP1 wherein the cPEP sequence has been deleted (NSP1 ΔcPEP) or version of NSP1 wherein the cPEP sequence has been replaced by an artificial sequence (NSP1 ΔcPEP-cPEPartificial), with an empty vector (control) or cPEPnsp1 or cPEPartificial. (f, g) Formation of lateral roots of M. truncatula WT seedlings, nsp1 or overexpressing NSP1, in response to cPEPnsp1 or Scrambled cPEPnsp1. (h, i) Quantification of nodules on roots of M. truncatula roots treated with an irrelevant peptide or cPEPskl. (j) Root development of M. truncatula seedlings infected with A. euteiches and treated with an irrelevant peptide or cPEPrh10. (k) Relative expression of A. euteiches α-tubulin in M. truncatula seedlings infected with A. euteiches and treated with an irrelevant peptide or cPEPrh10.
Quantification of mRNAs was performed by qRT-PCR using appropriate primer pairs selected from the sequences: SEQ ID NOs: 367 to 374. […]

The subject of another assay is M. truncatula seedlings. The assay is described as follows: Formation of lateral roots of M. truncatula seedlings. The class given is in vivo, Medicago truncatula.
Excerpt: as §2, with “(j) Root development of M. truncatula seedlings infected with A. euteiches and treated with an irrelevant peptide or cPEPrh10. (k) Relative expression of A. euteiches α-tubulin in M. truncatula seedlings infected with A. euteiches and treated with an irrelevant peptide or cPEPrh10.” left out
In order to verify whether cPEPs can target any protein, the activity of 12 cPEPs targeting 12 different proteins for which antibodies were available was studied and validated in three different plant species. The question was whether the increase in the quantity of proteins observed after treatment with cPEP was sufficient to modulate plant development. […]

As for SEQ ID NO: 181 (NKGKTVEGWR; cPEPtap46), in the assay on A. thaliana plants, the “plant development, measured by the day of flowering” value (“plant development … of flowering” for short) is “decrease”.
Same read-out and setting: for SEQ ID NO: 199 (ARGLAYLHE; AhBAK1) the value was “decrease”.
“SEQ ID NO: 386: Scrambled peptide corresponding to HA-tagged cPEPluc (RNYKNGRTHLYPYDVPDYA; Scrambled cPEPluc-HA) [reference compound]”: the “interaction with luciferase mRNA (RNA-IP followed by PCR)” value in the assay with luciferase mRNA is given as “could not”.
As for “cPEPwus (RWTPTTEQIK; cPEPwus) [SEQ ID NO: 196]”, the “plant development … of flowering” value with A. thaliana plants was “decrease”.
In the case of SEQ ID NO: 186 (HGEARDSEEV; cPEPshr), in the assay on A. thaliana plants, the “plant development … of flowering” value is “decrease”.
Still for that read-out and setting: for SEQ ID NO: 182 (ASGNETDEYD; cPEPspt) the value was “decrease”; for SEQ ID NO: 185 (VERRETPSGE; cPEPhag5), “decrease”.
On to SEQ ID NO: 194 (ERKFRLHKSP; cPEPabcg34), for which the “lesion size (plant defence against Botrytis cinerea)” value (shortened to “lesion size”) in the assay on Botrytis cinerea is on record as “decrease”.
With “cPEPmrb1 (NSEITKTAND; cPEPmrb1) [SEQ ID NO: 180]”, the “plant development … of flowering” value in the assay on A. thaliana plants is recorded as “increased”.
For SEQ ID NO: 406 (EKVVERRQRR; cPEPabi5), the chlorophyll content entry with A. thaliana seedlings is “decreasing”.
In the case of SEQ ID NO: 195 (IRLDTGEEPD; cPEPagb1), the “lesion size” value in the assay on Botrytis cinerea was “decrease”.
For SEQ ID NO: 162 (RSSKTELWTR; cPEPcpk3), in the assay with Botrytis cinerea, the “lesion size” value was “decrease”.
The same measure, in the same setting: the result for “SEQ ID NO: 188 (PLTGGRRDSK; cPEPmapkkk5_1)” reads “decrease”.
Take SEQ ID NO: 183 (SDFSSKYRED; cPEPga2ox7): the “plant development … of flowering” value in the assay with A. thaliana plants is “decrease”.
Still for that read-out and setting: for SEQ ID NO: 204 (NPVERSRHRD; cPEPein2_1) the value was “decrease”.
Take SEQ ID NO: 412 (QRLSLRNPLK; cPEPrh10): in the assay with Aphanomyces euteiches, the “root development (resistance to the pathogen)” value is “increased”. In the assay on Aphanomyces euteiches (7 days after inoculation), the “expression of A. euteiches α-tubulin in roots” value is on record as “decreased”.
Regarding SEQ ID NO: 407 (EWKKVKGKMS; cPEPsgr1), the chlorophyll content entry in the assay with A. thaliana seedlings is on record as “increasing”.
Regarding “cPEPjar1 (PETNFERDSS; cPEPjar1) [SEQ ID NO: 192, cPEP targeting the A. thaliana plant defence regulator JAR1]”, the “lesion size” value with Botrytis cinerea is “decrease”.
Still for that read-out and setting: for “SEQ ID NO: 187 (KEPEQRKRKS; cPEPmapkkk3)” the value was “decrease”.
As for cPEPnsp1 (DYGTKSNIRS; cPEPnsp1_3), the “amount of lateral roots” value in the assay with M. truncatula seedlings (M. truncatula WT seedlings) was “decreased”. For the same substance, the “sensitivity of lateral root formation to the peptide” value in the assay with M. truncatula seedlings (nsp1 mutant and NSP1-overexpressing M. truncatula) is “insensitive”.
In the case of SEQ ID NO: 198 (RHRNLVRLQG; AhBRI1), the “plant development … of flowering” value with A. thaliana plants was “decrease”.
Take “cPEPluc-HA: HA-tagged cPEPluc (KRYGLNTNHRYPYDVPDYA; cPEPluc-HA)”: in the assay with luciferase mRNA, the “interaction with luciferase mRNA (RNA-IP followed by PCR)” value is given as “able to interact”.
As to SEQ ID NO: 184 (LRETDLKDRR; cPEPphyb), the “plant development … of flowering” value with A. thaliana plants is “decrease”.
The same measure, in the same setting: for “cPEPshy2 (EENRSELLQR; cPEPshy2) [SEQ ID NO: 178]” the value was “increased”.
